Literature values, collected in patent publication US20050255458A1, “Drug discovery assays based on the biology of chronic disease” (priority 2002, published 2005).
“And” between values parts separate entries of the source, which are not always exact repeats. Equal values may be shown once. Read-outs that look alike come from different tables or passages of the source.

What was measured:
Details in all cases: cited from earlier work
monocytes on VCAM-1 = tested on: monocytes on VCAM-1
VCAM-1 = tested on: VCAM-1
AR = AR (Homo sapiens, UniProt P10275)
Sequence of AR (P10275 whole entry): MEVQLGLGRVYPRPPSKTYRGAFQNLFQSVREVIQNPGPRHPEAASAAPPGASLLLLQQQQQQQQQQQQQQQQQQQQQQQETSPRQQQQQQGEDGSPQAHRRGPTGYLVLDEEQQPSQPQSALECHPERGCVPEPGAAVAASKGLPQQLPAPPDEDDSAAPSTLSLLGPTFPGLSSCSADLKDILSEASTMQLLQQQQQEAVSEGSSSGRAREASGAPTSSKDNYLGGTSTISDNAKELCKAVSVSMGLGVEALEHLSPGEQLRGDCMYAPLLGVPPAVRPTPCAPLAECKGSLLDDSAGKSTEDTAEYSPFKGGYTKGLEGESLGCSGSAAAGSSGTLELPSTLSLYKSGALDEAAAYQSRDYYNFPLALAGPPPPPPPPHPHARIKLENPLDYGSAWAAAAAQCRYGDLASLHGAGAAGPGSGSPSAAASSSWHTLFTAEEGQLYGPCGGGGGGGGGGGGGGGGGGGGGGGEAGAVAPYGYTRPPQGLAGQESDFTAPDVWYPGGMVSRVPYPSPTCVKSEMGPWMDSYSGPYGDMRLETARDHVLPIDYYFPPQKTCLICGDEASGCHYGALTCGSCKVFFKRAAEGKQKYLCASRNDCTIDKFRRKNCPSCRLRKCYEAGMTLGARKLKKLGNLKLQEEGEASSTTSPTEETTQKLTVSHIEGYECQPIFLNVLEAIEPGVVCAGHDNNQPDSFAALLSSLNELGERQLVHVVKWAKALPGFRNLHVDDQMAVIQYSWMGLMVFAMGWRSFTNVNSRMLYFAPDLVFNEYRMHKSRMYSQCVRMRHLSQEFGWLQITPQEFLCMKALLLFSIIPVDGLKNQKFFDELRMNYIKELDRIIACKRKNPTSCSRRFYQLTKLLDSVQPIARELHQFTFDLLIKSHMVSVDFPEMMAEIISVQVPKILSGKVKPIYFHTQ

Substance | Average velocity (monocytes on VCAM-1) [μm/min] | average percent of monocyte remaining bound (VCAM-1; 8.5 dyn/cm^2, 0-6.99 minutes of stimulation, 1 ng/ml) [%] | average percent of monocyte remaining bound (VCAM-1; 8.5 dyn/cm^2, 7.0-13.99 minutes) [%] | average percent of monocyte remaining bound (VCAM-1; 8.5 dyn/cm^2, 14.0-30.0 minutes) [%] | average percent of monocyte remaining bound (VCAM-1; 36 dyn/cm^2, 0-6.99 minutes) [%] | average percent of monocyte remaining bound (VCAM-1; 36 dyn/cm^2, 14.0-30.0 minutes) [%] | Bmax (AR)
MCP-1: a chemokine | 2.43 ± 1.36 | 51 | 67 | 31 | 36 | 16 | –
[^3H]methyltrienolone [[3H]methyltrienolone (R1881)] | – | – | – | – | – | – | 30.1 ± 4.3 fmol/mg protein and 26.8 ± 3.0 fmol/mg protein and 18.7 ± 4.4 fmol/mg protein
